Source: publication PMC5874704, “In Silico Study, Synthesis, and Cytotoxic Activities of Porphyrin Derivatives” (Pharmaceuticals, 2018)

Columns and labels:
Vero cell line = assay: MTT cytotoxicity test, Vero (normal cells); type: cell-based, African green monkey; details: Chlorocebus sabaeus, 24 h treatment, triplicate, read-out: IC50 (μM) ± SD Vero
Experimental: (§1) The human epithelioid cervix carcinoma cell line (HeLa), human ductal breast epithelial tumor cell line (T47D), Michigan Cancer Foundation-7 cell line (MCF-7), human colon carcinoma cell line (WIDR), hepatoblastoma-derived cell line (HepG2), and Vero cell line (derived from kidney of African green monkey) were purchased from ATCC by the Faculty of Medicine Gadjah Mada University. The cell lines were cultured in Dulbecco’s Modified Eagle Medium (DMEM, Gibco), except for Vero cell line, which was cultured in Medium-199 (M-199, Gibco). Other chemicals, i.e., potassium dihydrogen phosphate, sodium chloride, potassium chloride, sodium hydrogen phosphate, dimethyl sulfoxide, sodium dodecyl sulphate, HEPES, sodium bicarbonate, and 3-(4,5-dimetiltiazol-2-il)-2,5-difeniltetrazolium bromide (MTT) were purchased from Sigma-Aldrich. Fetal bovine serum, trypsin-EDTA 0.25%, and penicillin-streptomycin were purchased from Gibco, whereas Amphotericin B was purchased from Caisson. Phosphate-buffered saline (PBS) was obtained by mixing 0.2 g of KH2PO4, 8 g of NaCl, 0.2 g of KCl, 1.15 g of Na2HPO4, and 1 L of distilled water.
(§2) Confluent cells in the Petri dish was harvested by removing the growth media in Petri dish and adding 1 mL of trypsin-EDTA […]. Then the cells was incubated at incubator 37 °C, 5% CO2 for about three minutes. The suspension of cells was put in centrifuge tube, 2 mL of growth media was added with 7 mL of PBS. The mixture was centrifuged for 10 min at 1200 rpm. The supernatant was separated and 2–3 mL of growth media was added to the pellet cell for counting cell. The cell suspense was cultured in 96-well plates (10,000 cells/well). After 24 h, the porphyrin derivative compounds with series concentration were added to treat the cell cultures for another 24 h. The cells were treated by MTT solution for four hours at incubator (37 °C, 5% CO2) and the reaction was stopped by stopper solution (SDS 10% HCl). The plate was incubated at room temperature in dark condition for 24 h. The living cells were counted by reading the absorbance at 595 nm. The corresponding IC50 values were calculated using non-linear regression analysis (GraphPad Prism 7.0.3). Each test was run in triplicate.

HeLa cell line = assay: MTT cytotoxicity test, HeLa; type: cell-based; details: Homo sapiens, 24 h treatment, triplicate, read-out: IC50 (μM) ± SD HeLa
Experimental: as §1, §2

MCF-7 cell line = assay: MTT cytotoxicity test, MCF-7; type: cell-based; details: Homo sapiens, MCF7, 24 h treatment, triplicate, read-out: IC50 (μM) ± SD MCF-7
Experimental: as §1, §2

HepG2 cell line = assay: MTT cytotoxicity test, HepG2; type: cell-based; details: Homo sapiens, 24 h treatment, triplicate, read-out: IC50 (μM) ± SD HepG2
Experimental: as §1, §2

WIDR cell line = assay: MTT cytotoxicity test, WIDR; type: cell-based; details: Homo sapiens, 24 h treatment, triplicate, read-out: IC50 (μM) ± SD WIDR
Experimental: as §1, §2

T47D cell line = assay: MTT cytotoxicity test, T47D; type: cell-based; details: Homo sapiens, 24 h treatment, triplicate, read-out: IC50 (μM) ± SD T47D
Experimental: as §1, §2

SMILES | melting point [°C] | IC50 (Vero cell line) [µM] | IC50 (HeLa cell line) [µM] | IC50 (MCF-7 cell line) [µM] | IC50 (HepG2 cell line) [µM] | IC50 (WIDR cell line) [µM] | IC50 (T47D cell line) [µM]
CCOC(=O)COc1ccc(-c2c3nc(c(-c4ccc(OCC(=O)OCC)c(OCC(=O)OCC)c4)c4ccc([nH]4)c(-c4cnn(C)c4)c4nc(c(-c5cnn(C)c5)c5ccc2[nH]5)C=C4)C=C3)cc1OCC(=O)OCC [cDBECPDPzP, 5,10-di-[bis(3,4-ethylcarboxymethylenoxy)phenyl]-15,20-di-(methylpyrazole-4-yl)porphyrin] |  | 548.8 ± 1.2 | 1083 ± 1.2 | 47.9 ± 1.1 | 28.6 ± 1.2 | 28.9 ± 1.1 | 164.5 ± 1.2
CCOC(=O)COc1ccc(-c2c3nc(c(-c4ccc(C)cc4)c4ccc([nH]4)c(-c4ccc(OCC(=O)OCC)c(OCC(=O)OCC)c4)c4nc(c(-c5ccc(C)cc5)c5ccc2[nH]5)C=C4)C=C3)cc1OCC(=O)OCC [DBECPDTP, 5,15-di-[bis(3,4-ethylcarboxymethylenoxy)phenyl]-10,20-di(p-tolyl)porphyrin] |  | 372.2 ± 1.1 | 201.7 ± 1.3 | 42.1 ± 1.1 | 37.2 ± 1.1 | 33.5 ± 1.1 | 166.7 ± 1.3
CCOC(=O)COc1ccc(-c2c3nc(c(-c4cnn(C)c4)c4ccc([nH]4)c(-c4ccc(OCC(=O)OCC)c(OCC(=O)OCC)c4)c4nc(c(-c5cnn(C)c5)c5ccc2[nH]5)C=C4)C=C3)cc1OCC(=O)OCC [DBECPDPzP, 5,15-di-[bis(3,4-ethylcarboxymethylenoxy)phenyl]-10,20-di-(methylpyrazole-4-yl)porphyrin] |  | 363.4 ± 1.1 | 941.9 ± 1.2 | 64.2 ± 1.1 | 31.7 ± 1.2 | 34.1 ± 1.1 | 177.8 ± 1.2
Nc1ccc(-c2c3nc(c(-c4ccc(N)cc4)c4ccc([nH]4)c(-c4ccc(N)cc4)c4nc(c(-c5ccc(N)cc5)c5ccc2[nH]5)C=C4)C=C3)cc1 [TAPP, 5,10,15,20-tetrakis(p-aminophenyl)porphyrin] |  | 2264 ± 1.2 | 1007 ± 1.1 | 262.2 ± 1.3 | 36 ± 1.2 | 205.1 ± 1.2 | 332.6 ± 1.2

Continued, in another order:

melting point [°C] | SMILES | IC50 (Vero cell line) [µM] | IC50 (HeLa cell line) [µM] | IC50 (MCF-7 cell line) [µM] | IC50 (HepG2 cell line) [µM] | IC50 (WIDR cell line) [µM] | IC50 (T47D cell line) [µM]
> 300 | Cc1ccc(-c2c3nc(c(-c4ccc(C)cc4)c4ccc([nH]4)c(-c4ccc(C)cc4)c4nc(c(-c5ccc(C)cc5)c5ccc2[nH]5)C=C4)C=C3)cc1 [TTP, 5,10,15,20-tetrakis(p-tolyl)porphyrin] | 15600 | 714.6 ± 1.1 | 1305 ± 1.3 | 1120 ± 1.3 | 969.8 ± 1.2 | 1241 ± 1.2
> 300 | Cc1ccc(-c2c3nc(c(-c4ccc(C)cc4)c4ccc([nH]4)c(-c4ccc([N+](=O)[O-])cc4)c4nc(c(-c5ccc(C)cc5)c5ccc2[nH]5)C=C4)C=C3)cc1 [TrTMNP, 5,10,15-tris(tolyl)-20-mono(p-nitrophenyl)porphyrin] | 10100 | 226.1 ± 1.1 | 505.2 ± 1.2 | 146.6 ± 1.2 | 897.5 ± 1.1 | 5372 ± 1.4
> 300 | Brc1ccc(-c2c3nc(c(-c4ccc(Br)cc4)c4ccc([nH]4)c(-c4ccc(Br)cc4)c4nc(c(-c5ccc(Br)cc5)c5ccc2[nH]5)C=C4)C=C3)cc1 [TBrPP, 5,10,15,20-tetrakis(p-bromophenyl)porphyrin] | 1176 ± 1.1 | 595.6 ± 1.3 | 870.6 ± 1.3 | 882.7 ± 1.2 | 772.7 ± 1.3 | 443.9 ± 1.1
> 300 | Cc1ccc(-c2c3nc(c(-c4ccc(C)cc4)c4ccc([nH]4)c(-c4ccc(N)cc4)c4nc(c(-c5ccc(C)cc5)c5ccc2[nH]5)C=C4)C=C3)cc1 [TrTMAP, 5,10,15-tris(tolyl)-20-mono(p-aminophenyl)porphyrin] | 4784 ± 1.2 | 593.1 ± 1.2 | 328.4 ± 1.4 | 107 ± 1.3 | 835.4 ± 1.3 | 1099 ± 1.3
